Experimental data as given in ChEMBL document CHEMBL1201862, “PubChem BioAssay data set” (2004).
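All cell lines were grown in 96-well plates and treated with compound for 48 hours. The concentration for 50% growth inhibition is given as GI50.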 The source made the active and inactive calls. Rule as the data show it: active = GI50 up to about 1.1 µM and inactive = higher. Residues, ends and D or L forms follow the SMILES beside them. *: point of attachment. Cbz = O=C(OCc1ccccc1)*

Assays:
Assay in all cases: DTP human tumour cell line panel, 48 h
[1] = test system: SR
[2] = test system: NCI-H23
[3] = test system: NCI-H226
[4] = test system: SN12C
[5] = test system: DMS-114
[6] = test system: EKVX
[7] = test system: SNB-19
[8] = test system: TK-10
[9] = test system: UACC-62
[10] = test system: HT-29
[11] = test system: COLO 205
[12] = test system: PC-3
[13] = test system: MCF7
[14] = test system: Hs-578T
[15] = test system: MDA-MB-231
[16] = test system: BT-549
[17] = test system: IGROV-1
[18] = test system: MDA-MB-435
[19] = test system: KM-20L2
[20] = test system: LXFL 529

Measured: GI50

O=C1c2ccccc2C(=O)c2[nH]cnc21
inactive: [1] 44 µM | [2] 30.2 µM | [3] 29.8 µM | [4] 95.7 µM | [5] 31.5 µM | [6] 91.2 µM | [7] 46.7 µM | [8] > 100 µM | [9] 31.9 µM | [10] 33.5 µM

C1OCN2c3nonc3N3COCN4c5nonc5N1C2C43 (stereo not given)
inactive: [11] 40.3 µM | [1] > 100 µM | [2] > 100 µM | [12] > 100 µM | [3] > 100 µM | [4] > 100 µM | [13] 49.1 µM | [14] > 100 µM | [6] > 100 µM | [7] > 100 µM | [8] > 100 µM | [15] > 100 µM | [16] > 100 µM | [17] > 100 µM | [9] > 100 µM | [10] 31.1 µM | [18] > 100 µM

CC(=O)OC1c2ccccc2CCCCCCC12OCCO2 (stereo not given)
inactive: [11] > 100 µM | [2] > 100 µM | [3] > 100 µM | [4] > 100 µM | [5] 61.5 µM | [7] > 100 µM | [8] > 100 µM | [17] > 100 µM | [9] > 100 µM | [10] > 100 µM | [19] > 100 µM

CCOC(=O)N1CCN(Cc2cc(=O)n3ccc(C)cc3n2)CC1
inactive: [11] > 100 µM | [1] > 100 µM | [2] > 100 µM | [12] > 100 µM | [3] > 100 µM | [4] > 100 µM | [13] > 100 µM | [14] > 100 µM | [6] > 100 µM | [7] > 100 µM | [8] > 100 µM | [15] > 100 µM | [16] > 100 µM | [17] > 100 µM | [9] > 100 µM | [10] > 100 µM | [18] > 100 µM

COc1ccc(/C=C/NC=O)cc1
inactive: [11] > 100 µM | [1] > 100 µM | [2] > 100 µM | [12] > 100 µM | [3] > 100 µM | [4] > 100 µM | [13] > 100 µM | [14] > 100 µM | [6] > 100 µM | [7] > 100 µM | [8] > 100 µM | [15] 89.5 µM | [16] > 100 µM | [17] > 100 µM | [9] > 100 µM | [10] > 100 µM | [18] > 100 µM

Cc1cn(C2CC(N)C(C(=O)O)O2)c(=O)[nH]c1=O (stereo not given)
inactive: [11] > 100 µM | [1] > 100 µM | [2] > 100 µM | [12] > 100 µM | [3] > 100 µM | [4] > 100 µM | [13] > 100 µM | [14] > 100 µM | [6] > 100 µM | [7] > 100 µM | [8] > 100 µM | [15] > 100 µM | [16] > 100 µM | [17] > 100 µM | [9] > 100 µM | [10] > 100 µM | [18] > 100 µM

CCN(CC)CCNc1c(OC)cc(C)c2sc3ccccc3c(=O)c12
inactive: [11] 2.06 µM | [1] 3.15 µM | [2] 14.5 µM | [12] 7.71 µM | [3] 3.4 µM | [4] 2.79 µM | [13] 4.44 µM | [14] 7.5 µM | [6] 16.8 µM | [7] 12.7 µM | [8] 8.59 µM | [15] 2.74 µM | [16] 11.7 µM | [17] 7.69 µM | [9] 1.79 µM | [10] 2.61 µM | [18] 3.08 µM

O=C(O)c1cccc(/N=N/c2c(S(=O)(=O)O)ccc3c2C(=O)c2ccccc2C3=O)c1O
inactive: [11] > 100 µM | [1] > 100 µM | [2] > 100 µM | [12] > 100 µM | [3] > 100 µM | [4] > 100 µM | [13] > 100 µM | [14] > 100 µM | [6] > 100 µM | [7] > 100 µM | [8] > 100 µM | [15] > 100 µM | [16] > 100 µM | [17] > 100 µM | [9] > 100 µM | [10] > 100 µM | [18] > 100 µM

CCOC(=O)CSc1nc(N)c2c(-c3ccccc3)c3c(nc2n1)CCCC3
inactive: [11] > 100 µM | [1] > 100 µM | [2] > 100 µM | [12] > 100 µM | [3] > 100 µM | [4] > 100 µM | [13] > 100 µM | [14] 65.8 µM | [6] > 100 µM | [7] > 100 µM | [8] > 100 µM | [15] > 100 µM | [16] > 100 µM | [17] > 100 µM | [9] > 100 µM | [10] > 100 µM | [18] > 100 µM

CCCn1c(SCCSc2c3ccccc3c(-c3nc(F)nc(F)n3)n2CCC)c2ccccc2c1-c1nc(F)nc(F)n1
inactive: [11] 38 µM | [1] 27 µM | [2] > 100 µM | [4] > 100 µM | [6] > 100 µM | [7] > 100 µM | [8] > 100 µM | [20] 88.9 µM | [9] > 100 µM | [10] > 100 µM | [19] 91.6 µM

O=C(C=C1SCCS1)/C=C\c1ccc(Cl)cc1
inactive: [11] > 100 µM | [1] 85.7 µM | [2] > 100 µM | [3] 83.2 µM | [4] > 100 µM | [6] > 100 µM | [7] > 100 µM | [8] 97.5 µM | [20] 69.7 µM | [17] > 100 µM | [9] 99.8 µM | [10] 41.4 µM

O=[N+]([O-])C1=Cc2c(O)ccc(O)c2C2c3ccccc3NC12 (stereo not given)
inactive: [11] 11.6 µM | [1] 13.5 µM | [2] 4.24 µM | [12] 6.3 µM | [3] 61.2 µM | [4] 16.7 µM | [13] 2.71 µM | [14] 26.1 µM | [6] 14.8 µM | [7] 12.2 µM | [8] 16.1 µM | [15] 13.6 µM | [16] 12.3 µM | [17] 13.5 µM | [9] 6.32 µM | [10] 9.02 µM | [18] 14.7 µM

CCOC(=O)C(C(N)=O)C1=Nc2cc([N+](=O)[O-])ccc2N/C1=C\C(=O)c1ccccc1 (stereo not given)
inactive: [11] 17.9 µM | [1] 3.3 µM | [2] 11.5 µM | [12] 15.5 µM | [3] 31.3 µM | [4] 23.1 µM | [13] 12.4 µM | [14] 16.5 µM | [6] 20.6 µM | [7] 18.5 µM | [8] 11 µM | [15] 13.3 µM | [16] 21.7 µM | [17] 11.2 µM | [9] 17.3 µM | [10] 16.5 µM | [18] 15.8 µM

CO[C@]12CCC(=O)N1C=Cc1c2[nH]c2ccccc12
inactive: [11] > 100 µM | [1] > 100 µM | [2] > 100 µM | [3] > 100 µM | [5] > 100 µM | [6] > 100 µM | [7] > 100 µM | [8] > 100 µM | [20] > 100 µM | [17] > 100 µM | [9] > 100 µM | [10] > 100 µM

C[C@H](CCC(=O)NCCS(=O)(=O)O)[C@H]1CC[C@H]2[C@@H]3[C@H](O)C[C@@H]4C[C@H](O)CC[C@]4(C)[C@H]3CC[C@]12C
inactive: [11] > 100 µM | [1] > 100 µM | [2] > 100 µM | [12] > 100 µM | [3] > 100 µM | [4] > 100 µM | [13] > 100 µM | [14] > 100 µM | [6] > 100 µM | [7] > 100 µM | [8] > 100 µM | [15] > 100 µM | [16] > 100 µM | [17] > 100 µM | [9] > 100 µM | [10] > 100 µM | [18] > 100 µM

Cc1cn(C2CC(O)C(COP(=O)(O)OC3CC(n4c[n+]([BH2-]C#N)c5c(=O)[nH]c(N)nc54)OC3CO)O2)c(=O)[nH]c1=O (stereo not given)
inactive: [11] > 100 µM | [1] > 100 µM | [2] > 100 µM | [12] > 100 µM | [3] > 100 µM | [4] > 100 µM | [13] > 100 µM | [14] > 100 µM | [6] > 100 µM | [7] > 100 µM | [8] > 100 µM | [15] > 100 µM | [16] > 100 µM | [17] > 100 µM | [9] > 100 µM | [10] > 100 µM | [18] > 100 µM

CC(NC(=O)C(NC(=O)OCc1ccccc1)C(C)C)C(=O)NCC(=O)O (stereo not drawn) (Cbz-Val-Ala-Gly-OH; configuration not given here)
inactive: [11] > 100 µM | [1] > 100 µM | [2] > 100 µM | [12] > 100 µM | [3] > 100 µM | [4] > 100 µM | [13] > 100 µM | [14] > 100 µM | [6] > 100 µM | [7] > 100 µM | [8] > 100 µM | [15] > 100 µM | [16] > 100 µM | [17] > 100 µM | [9] > 100 µM | [10] > 100 µM | [18] > 100 µM
